Test results published in patent US11389415B2, “Methods of regulating cannabinoid receptor activity-related disorders and diseases” (The United States of America as represented by the …, priority 2012, dated 2022).

What was measured:
HepG2 cells = experiment: [3H]-Thymidine incorporation assay in HepG2 cells; format: cell-based, human
Description: Maintenance and Treatment of Cell Lines. Human HepG2 hepatocarcinoma cells and human U87MG glioma cells (ATCC, Manassas, Va.) were maintained in EMEM medium supplemented with 1% L-glutamine, 1% sodium pyruvate, 1% penicillin/streptomycin, and 10% FBS (Hyclone, Logan, Utah). The human 1321N1 astrocytoma cells (European Collection of Cell Cultures, Sigma-Aldrich) were cultured in Dulbecco's modified Eagle's medium supplemented with 10% FBS and penicillin/streptomycin. All cell lines were cultured at 37° C. in 5% CO2, and the medium was replaced every 2-3 days.
Cells were seeded in 12-well plates at approximately 50,000 cells/well and incubated at 37° C. After 24 hours, the wells were rinsed with PBS and replaced with serum-free medium containing the appropriate concentration of the test compounds. After another 24-hour incubation at 37° C., 1 μCi of [^3H]-thymidine was added to each well and incubated at 37° C. for 16 hours. [^3H]-Thymidine incorporation into DNA was monitored after the cells were washed twice with PBS and then lysed in 600 μL of 0.1N NaOH for 30 minutes with shaking. The lysate was then mixed with 3 mL of liquid scintillation cocktail (Beckman Coulter, Inc., Brea, Calif.), and radioactivity was measured by liquid scintillation counting using Beckman Coulter LS6000IC Scintillation Counter. Data are shown as CPM incorporated compared to the control cells.

1321N1 cells = conditions: previously reported; read-out: Mitogenesis Inhibition in 1321N1 cells (IC50 nM)* (converted); cited from earlier work
HepG2 and PANC-1 cells = experiment: Cell morphology and EGFR expression in HepG2 and PANC-1 cells; format: cell-based, human; conditions: 5 μM, 16 hours
Description: FIGS. 26A-26C show MNF interferes with inducible changes in cell morphology and expression of EGFR. […] White arrows show individual cells with filopodia. FIG. 26C, Cell lysates were prepared from similar studies and immunoblotted for EGFR. The membranes were reprobed for Hsp90, which served as a loading control.
(§1) Western blot analysis. For detection of intracellular signaling proteins, cells were lysed in radioimmunoprecipitation buffer containing EGTA and EDTA (Boston BioProducts, Ashland, Mass.). The lysis buffer contained a protease inhibitor cocktail (Sigma-Aldrich) and phosphatase inhibitor cocktail (Calbiochem, San Diego, Calif.). Equivalent amount of proteins (14 and 54 μg/well for PANC-1 and HepG2 cells, respectively) were separated on 4 to 12% precast gels (Invitrogen, Carlsbad, Calif.) using SDS-polyacrylamide gel electrophoresis under reducing conditions and then electrophoretically transferred onto polyvinylidene fluoride membrane (Invitrogen). Western blots were performed according to standard methods, which involved blocking in 5% non-fat milk and incubated with the antibody of interest, followed by incubation with a secondary antibody conjugated with the enzyme horseradish perodixase. The detection of immunoreactive bands was performed by chemiluminescence using the ECL Plus Western Blotting Detection System (GE Healthcare, Piscataway, N.J.). The quantification of bands was done by volume densitometry by using ImageJ software. The rabbit polyclonal antibodies against EGFR were obtained from Cell Signaling Technology, Inc. (Beverly, Mass.) and the monoclonal anti-Hsp90 was purchased from Santa Cruz Biotechnology, Inc. (Santa Cruz, Calif.).

GPR55 [1] = target: T1, GPR55 (Homo sapiens, UniProt Q9Y2T6); experiment: GPR55 internalization assay in hGPR55-HEK293 cells; format: cell-based; conditions: HEK293 stably expressing HA-tagged GPR55, 5 μM, 20 minutes
Description: GPR55 internalization assay. Endocytosis of GPR55 was observed following a previously described protocol with minor modifications (Henstridge et al., Br. J. Pharmacol. 160: 604-614, 2010). Briefly, hGPR55-HEK293 cells were grown on Lab-Tek II CC2 chamber slides (Thermo Scientific Nunc, Rochester, N.Y.) for 48 hours in regular media and then were serum starved for 1 hour. A preincubation with 1:1000 rabbit HA antibody (Covance, Md.) was performed in the presence of vehicle (0.1% DMSO) or 1 μM MNF in serum-free media for 45 minutes at 37° C. in the CO2 incubator. Cells were then washed extensively with PBS and treated with 5 μM 01602 in serum-free media for 20 minutes at 37° C. in the CO2 incubator. Subsequently, cells were washed three times, fixed in fresh 3.7% paraformaldehyde in PBS (10 min), and incubated with anti-rabbit Alexa Fluor 488 antibody (Molecular Probes, Eugene, Oreg.; 1:1000, 30 minutes). Cells were washed and fixed for a second time prior to permeabilization with 0.2% Triton X-100 (5 minutes). Incubation with anti-rabbit Alexa Fluor 568 antibody (Molecular Probes; 1:1000, 30 minutes) was carried out to determine the extent of internalized GPR55-HA antibody complex. […]

ERK1/2 = ERK1/2 phosphorylation (GPR55 downstream signaling) in HepG2 cells; format: cell-based, human; conditions: HepG2, 2.5 and 10 μM, 10 minutes
Description: as §1
Effect of MNF on O-1602-mediated increase in cell signaling. Serum-starved cells were pretreated in the absence or presence of 1 μM MNF for 10 minutes followed by a 10 minute incubation with 0, 2.5 and 10 μM O-1602 or 10% FBS, after which the levels of total ERK2 and phosphorylated forms of ERK1/2 (pErk1/2, Thr202/Tyr204), were determined by Western blotting technique. All primary antibodies were purchased from Cell Signaling Technology and used at a dilution recommended by the manufacturer.

GPR55 [2] = target: T1, GPR55; experiment: Cellular uptake of TocriFluor T1117 in HepG2 cells; format: cell-based; set-up: host or cells: HepG2 hepatocarcinoma cells; conditions: HepG2, 0.25 μM, 30 minutes pretreatment

T1 sequence (Q9Y2T6 whole entry): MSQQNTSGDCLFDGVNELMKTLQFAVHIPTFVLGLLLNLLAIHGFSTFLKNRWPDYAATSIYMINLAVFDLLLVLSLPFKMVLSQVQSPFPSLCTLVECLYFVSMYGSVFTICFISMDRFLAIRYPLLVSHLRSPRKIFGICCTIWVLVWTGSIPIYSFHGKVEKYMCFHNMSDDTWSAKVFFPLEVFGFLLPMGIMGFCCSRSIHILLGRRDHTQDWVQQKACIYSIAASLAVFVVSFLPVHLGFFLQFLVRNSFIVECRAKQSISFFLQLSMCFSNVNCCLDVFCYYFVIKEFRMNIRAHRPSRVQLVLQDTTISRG

Row | Structure (SMILES) | % Change in HepG2 cells ([3H]-thymidine incorporation) (HepG2 cells; at 10 μM) | IC50 (1321N1 cells) | % Change in HepG2 cells ([3H]-thymidine incorporation) (HepG2 cells; 1 μM, 24 h) | EGFR levels (HepG2 and PANC-1 cells) | GPR55 internalization (GPR55 [1]) | ERK phosphorylation (ERK1/2) | reduction in the amount of T1117 incorporated (GPR55 [2]) | delay in cellular accumulation of T1117 (GPR55 [2]; 10 nM T1117)
1 | CCC(Cc1ccc(O)cc1)NCC(O)c1cc(O)cc(O)c1 [(R,R′)-ethylFen, (R,R′)-ethylfenoterol] | (R,R′): 50.90 at 10 μM % | 1.44 ± 0.27 nM | – | – | – | – | – | –
2 | C[C@@H](Cc1ccc(O)cc1)NC[C@@H](O)c1cc(O)cc(O)c1 [(S,S′)-Fen, fenoterol] | – | 184 nM | 9.7% | – | – | – | – | –
3 | C=C(C)[C@@H]1CCC(C)=C[C@H]1c1c(C)cc(O)cc1O [O-1602, reference compound] | – | – | – | led to higher EGFR levels when compared to vehicle-treated cells | led to marked endocytosis of HA-tagged GPR55 | dose-dependently increased ERK phosphorylation | 47% | 12.5 min
